Test results reported in PMC10383271.

Target: human serum albumin (HSA) (Homo sapiens, UniProt P02768)
Test: Binding site study with HSA, replacement of markers DanG and DanF (fluorescence)
Design: purchased Sigma-Aldrich Chemie GmbH
Conditions: for percentage of the replacement of DanG: drug site 1 marker; for percentage of the replacement of DanF: drug site 2 marker
Source text: HSA, the most important transport protein in our body, has two main binding sites with high affinity to drug binding: drug site 1 in subdomain IIA and drug site 2 in subdomain IIIA [71, 72, 73]. To determine which site the test compounds bind to, the analysis with markers having an affinity for one of the binding sites can be used. Dansylated amino acids turn out to be good for this type of research. In our study, we used dansyl-L-glycine (DanG) and dansyl-L-phenylalanine (DanF) as drug site 1 and drug site 2 markers, respectively. DanG and DanF bound with HSA show the phenomenon of fluorescence at the excitation wave equal to 350 nm. Under these conditions, the fluorescence spectrum is recorded with a band maximum at approximately 510 nm for DanG and 505 nm for DanF, respectively. We conducted a study in which we introduced successive portions of the analyzed compounds to a solution containing equimolar amounts of HSA and each marker. We increased the molar ratio of the reactants from 1:1:0 to 1:1:10. The intensity of fluorescence decreases during the addition of successive portions of the analyzed compounds.
Based on the obtained results, it is possible to calculate the percentage of replacement of DanG or DanF in the complex with albumin by the tested compounds and thus compare the effectiveness of this reaction for all analyzed molecules. (6) percentage of replacement=F0−F/F0·100%
Binding site studies were conducted using fluorescence measurements. Spectra were recorded on Cary Eclipse 500 spectrophotometer (Agilent, Santa Clara, CA, USA) at room temperature with a 10 mm path length. HSA and AAG solutions were prepared in phosphate buffer, giving concentrations equal to 1 × 10^−6 M. The concentrations of dansylated-L-glycine (DanG), dansylated-L-phenylalanine (DanF), and quinaldine red (QR) were 1 × 10^−3 M. The densylated amino acids and QR solutions were prepared in ethanol. For the HSA-dansylated amino acids studies, the excitation wavelength was equal to 350 nm, while for the AAG-QR system, it was 500 nm, respectively. Then, 3 mL of protein was mixed with 3 µL of marker solution, giving a molar ratio of 1 to 1. Next, successive portions of the analyzed compounds were added to the mixtures prepared in this way, obtaining the appropriate protein-to-compound molar ratios, amounting to 1:0, 1:0.5, 1:1, 1:2, 1:3, 1:4, 1:5, and 1:10 for the HSA-densylated amino acids systems, and 1:0, 1:0.5, 1:1, 1:2, 1:3, 1:4, 1:6, 1:8, and 1:10 for the AAG-QR systems.

[1] = HSA:marker:compound molar ratio 1:1:0.5
[2] = HSA:marker:compound molar ratio 1:1:1
[3] = HSA:marker:compound molar ratio 1:1:2
[4] = HSA:marker:compound molar ratio 1:1:3
[5] = HSA:marker:compound molar ratio 1:1:4
[6] = HSA:marker:compound molar ratio 1:1:5
[7] = HSA:marker:compound molar ratio 1:1:10

human serum albumin (HSA), sequence (P02768 25-609): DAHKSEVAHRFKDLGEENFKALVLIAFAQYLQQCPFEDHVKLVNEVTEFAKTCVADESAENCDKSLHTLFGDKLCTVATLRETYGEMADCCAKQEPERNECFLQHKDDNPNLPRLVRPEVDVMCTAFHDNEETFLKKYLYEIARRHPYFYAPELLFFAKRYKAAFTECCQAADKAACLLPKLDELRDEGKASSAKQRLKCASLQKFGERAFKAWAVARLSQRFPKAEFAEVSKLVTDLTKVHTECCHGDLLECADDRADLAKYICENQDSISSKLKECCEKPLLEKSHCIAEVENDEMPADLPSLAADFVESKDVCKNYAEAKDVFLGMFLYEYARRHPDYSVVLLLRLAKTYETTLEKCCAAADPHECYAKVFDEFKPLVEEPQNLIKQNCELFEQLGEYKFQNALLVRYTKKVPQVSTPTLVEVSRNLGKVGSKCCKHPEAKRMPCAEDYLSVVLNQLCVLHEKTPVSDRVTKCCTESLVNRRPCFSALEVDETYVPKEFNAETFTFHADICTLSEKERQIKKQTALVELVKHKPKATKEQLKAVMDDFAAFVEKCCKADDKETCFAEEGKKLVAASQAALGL

CCCCn1c(C)c2c(OCC(=O)N/N=C/c3ccccc3)nn(C)c(=O)c2c1C [Compound 5a, N-[(Z/E)-benzylideneamino]-2-(6-butyl-3,5,7-trimethyl-4-oxo-pyrrolo[3,4-d]pyridazin-1-yl)oxy-acetamide]
percentage of the replacement of DanG [1]: 0.7% | percentage of the replacement of DanG [2]: 0.7% | percentage of the replacement of DanG [3]: 3.7% | percentage of the replacement of DanG [4]: 5.2% | percentage of the replacement of DanG [5]: 6.7% | percentage of the replacement of DanG [6]: 8.5% | percentage of the replacement of DanG [7]: 15.7% | percentage of the replacement of DanF [1]: 2.3% | percentage of the replacement of DanF [2]: 2.7% | percentage of the replacement of DanF [3]: 5.9% | percentage of the replacement of DanF [4]: 9.0% | percentage of the replacement of DanF [5]: 11.7% | percentage of the replacement of DanF [6]: 14.9% | percentage of the replacement of DanF [7]: 28.8%

Cc1c2c(OCC(=O)N/N=C/c3ccccc3)nn(C)c(=O)c2c(C)n1-c1cccc(Cl)c1 [Compound 5c, N-[(Z/E)-benzylideneamino]-2-[6-(3-chlorophenyl)-3,5,7-trimethyl-4-oxo-pyrrolo[3,4-d]pyridazin-1-yl]oxyacetamide]
percentage of the replacement of DanG [1]: 2.9% | percentage of the replacement of DanG [2]: 2.9% | percentage of the replacement of DanG [3]: 4.3% | percentage of the replacement of DanG [4]: 5.0% | percentage of the replacement of DanG [5]: 5.7% | percentage of the replacement of DanG [6]: 6.4% | percentage of the replacement of DanG [7]: 11.4% | percentage of the replacement of DanF [1]: 6.2% | percentage of the replacement of DanF [2]: 9.5% | percentage of the replacement of DanF [3]: 13.8% | percentage of the replacement of DanF [4]: 18.1% | percentage of the replacement of DanF [5]: 19.0% | percentage of the replacement of DanF [6]: 21.0% | percentage of the replacement of DanF [7]: 23.3%

Cc1c2c(OCC(=O)N/N=C/c3ccccc3)nn(C)c(=O)c2c(C)n1-c1ccccc1 [Compound 5b, N-[(Z/E)-benzylideneamino]-2-(3,5,7-trimethyl-4-oxo-6-phenyl-pyrrolo[3,4-d]pyridazin-1-yl)oxy-acetamide]
percentage of the replacement of DanG [1]: 0% | percentage of the replacement of DanG [2]: 0.7% | percentage of the replacement of DanG [3]: 5.6% | percentage of the replacement of DanG [4]: 7.7% | percentage of the replacement of DanG [5]: 9.8% | percentage of the replacement of DanG [6]: 11.2% | percentage of the replacement of DanG [7]: 14.0% | percentage of the replacement of DanF [1]: 5.2% | percentage of the replacement of DanF [2]: 9.1% | percentage of the replacement of DanF [3]: 15.7% | percentage of the replacement of DanF [4]: 20.4% | percentage of the replacement of DanF [5]: 23.5% | percentage of the replacement of DanF [6]: 27.4% | percentage of the replacement of DanF [7]: 32.2%
